In one data set the test system is other animal models. The conditions noted are these: cited from earlier work.
For data set [1], the target named is T1, CYP2J2 (Homo sapiens, UniProt P51589).
T1 sequence (P51589 1-502): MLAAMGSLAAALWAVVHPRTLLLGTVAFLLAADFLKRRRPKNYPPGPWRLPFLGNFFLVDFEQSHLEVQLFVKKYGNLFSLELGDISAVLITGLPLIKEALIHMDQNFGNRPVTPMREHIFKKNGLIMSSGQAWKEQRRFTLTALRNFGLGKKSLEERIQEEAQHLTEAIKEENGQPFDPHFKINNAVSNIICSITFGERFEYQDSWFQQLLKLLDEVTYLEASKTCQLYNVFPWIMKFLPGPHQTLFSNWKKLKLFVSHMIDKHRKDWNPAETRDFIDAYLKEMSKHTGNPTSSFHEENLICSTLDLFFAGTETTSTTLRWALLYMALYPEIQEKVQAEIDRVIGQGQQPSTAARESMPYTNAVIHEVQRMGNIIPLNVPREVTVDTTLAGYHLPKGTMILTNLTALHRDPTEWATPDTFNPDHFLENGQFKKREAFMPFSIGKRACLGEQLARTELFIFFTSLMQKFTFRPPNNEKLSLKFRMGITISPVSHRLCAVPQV
The conditions noted are these: formation of mono-oxygenated product; for Vmax: 5–60 µM pCB, 30 min, 37°C.

The target of data set [2] is T1, CYP2J2. The conditions noted are these: directly from Soret titration or through inhibition of ebastine binding.
The subject of another data set is humans. Conditions: cited from earlier work.
The target of data set [3] is T1, CYP2J2. As to the kind of experiment: Identification of pCB metabolites formed by CYP2J2. It counts as in vitro ADME. The conditions noted are these: major mono-oxygenated product(s) of CYP2J2 metabolism.
Data set [4] has as its target T1, CYP2J2. The conditions noted are these: at saturating concentrations, CYP2J2-NDs.
The target of data set [5] is T1, CYP2J2. In words: Inhibition of CYP2J2-mediated AEA metabolism by pCBs. It counts as biochemical. Conditions: for Type of AEA Metabolism Inhibition / Ki: 30 µM pCB; for Type of AEA Metabolism Inhibition: model of inhibition; for apparent Vmax of AEA metabolism, % of the uninhibited enzyme: in the presence of 30 µM pCB; for Ki: CYP2J2-ND/CPR.
Data set [6] has as its target T1, CYP2J2. It counts as in vitro ADME.
The subject of data set [7] is fatty acid amide hydrolase (FAAH). The conditions noted are these: cited from earlier work.
The target of data set [8] is T1, CYP2J2. In words: biochemical.
A further data set deals with Rhesus monkeys. The conditions noted are these: cited from earlier work.
Substrate in data set [9]: CCCCC/C=C\C/C=C\C/C=C\C/C=C\CCCC(=O)NCCO
In words: not read. In kind it is in vitro ADME. The conditions noted are these: other: total EET-EAs formed, CYP2J2-ND/CPR; pH 7.4.

Substrate in data set [10]: CCCCCc1cc(O)c(C/C=C(\C)CCC=C(C)C)c(O)c1
As to the kind of experiment: not read. Conditions: other: formation of mono-oxygenated product; pH 7.4; 37.0 °C.

[11] abbreviates: read-out: Ki, AEA Metabolism Inhibition.

“And” between values parts separate entries of the source, which are not always exact repeats. Equal entries are not always repeated. “Also recorded” adds a separate entry of the source. Where two headings read alike, the source gives them in different places.

Turning to `CCCCCc1cc(O)c2c(c1)OC(C)(C)[C@@H]1CCC(C)=C[C@@H]21` [Δ9-THC, Δ9-tetrahydrocannabinol, reference compound], the “effect on heart rate in other animal models” value in the data set with other animal models was “induces bradycardia”. At CYP2J2 [1], the Km (usually the substrate concentration at which the rate is half of its maximum) turned out to be 11.9 ± 4.8 µM and the Vmax is 211 ± 28 pmol · min^−1 · nmolCYP2J2^−1. Moreover, the binding affinity result at CYP2J2 [2] is on record as “weakest”. Also, the “effect on heart rate in humans” value in the data set on humans is recorded as “induces tachycardia”. The “Metabolite(s)” value on CYP2J2 [3] is -1’-OH. Further, the high-spin shift entry at CYP2J2 [4] is recorded as “did not produce a significant change in the high-spin content”. In addition, at CYP2J2 [5], the “Type of AEA Metabolism Inhibition” value is reported as “Noncompetitive”; the “apparent Vmax of AEA metabolism, % of the uninhibited enzyme” value was 20% and 20–45%. Also, the Ki (commonly the dissociation constant of the complex between target and ligand, obtained from inhibition or displacement) at CYP2J2 [5] (setting [11]) turned out to be 9.86 ± 0.45 µM.

In the case of `CCCCCc1cc(O)c2c(c1)OC(C)(C)[C@@H]1CC=C(C)C[C@@H]21` [Δ8-THC, Δ8-tetrahydrocannabinol], on CYP2J2 [1], the Km was 8.52 ± 5.3 µM and the Vmax is recorded as 80.9 ± 14.3 pmol · min^−1 · nmolCYP2J2^−1. On CYP2J2 [3], the “Metabolite(s)” value is recorded as -1’-OH. Besides, on CYP2J2 [4], the high-spin shift entry is listed as “did not produce a significant change in the high-spin content”. Besides, at CYP2J2 [5], the “Type of AEA Metabolism Inhibition” value is listed as “Noncompetitive” and the “apparent Vmax of AEA metabolism, % of the uninhibited enzyme” value was 20–45%. Besides, the inhibition constant Ki on CYP2J2 [5] (setting [11]) stood at 20.2 ± 1.9 µM.

Take `CCCCC/C=C\C/C=C\C/C=C\C/C=C\CCCC(=O)NCCO` [AEA, anandamide]: the “Metabolite(s)” value on CYP2J2 [6] (AEA metabolism by CYP2J2-NDs) is recorded as “EET-EAs”. For the same molecule, the Vmax on CYP2J2 [6] (total EET-EAs formed, CYP2J2-ND/CPR) is 135 ± 14.0 pmol · min^−1 · nmolCYP2J2^−1 and 135 ± 14 pmol · min^−1 · nmolCYP2J2^−1. Further, the high-spin shift entry on CYP2J2 [4] is “did not produce a significant change in the high-spin content”.

With `C=C(C)[C@@H]1CCC(C)=C[C@H]1c1c(O)cc(CCCCC)cc1O` [CBD, cannabidiol, reference compound], the “inhibition of FAAH” value in data set [7] is “weakly inhibited”. Also, on CYP2J2 [1], the Vmax is on record as 372 ± 100 pmol · min^−1 · nmolCYP2J2^−1. Moreover, binding at CYP2J2 [8] was characterised by a dissociation constant (Kd) of 11.5 ± 3 µM. For the same molecule, the “Metabolite(s)” value on CYP2J2 [3] is on record as -7-OH + -1”-OH. For the same molecule, the high-spin shift at CYP2J2 [4] stood at 32%. Moreover, at CYP2J2 [5], the “Type of AEA Metabolism Inhibition” value is reported as “Noncompetitive” and the “apparent Vmax of AEA metabolism, % of the uninhibited enzyme” value is reported as 20–45%. The affinity on CYP2J2 [5] (Ki, AEA Metabolism Inhibition), expressed as Ki, was 16.9 ± 1.1 µM.

Regarding `CCCCCc1cc(O)c2c(c1)OC(C)(CCC=C(C)C)C=C2` (stereo not drawn) [CBC, cannabichromene], the Vmax at CYP2J2 [1] was 371 ± 134 pmol · min^−1 · nmolCYP2J2^−1. The “Metabolite(s)” value at CYP2J2 [3] was -1”-OH. Besides, on CYP2J2 [4], the high-spin shift result is “did not produce a significant change in the high-spin content”. Also, on CYP2J2 [5], the “Type of AEA Metabolism Inhibition” value was “Noncompetitive” and the “apparent Vmax of AEA metabolism, % of the uninhibited enzyme” value was 20–45%. The molecule further had a Ki at CYP2J2 [5] (Ki, AEA Metabolism Inhibition) of 21.1 ± 1.4 µM.

As to `CCCCCc1cc(O)c2c(c1)OC(C)(C)c1ccc(C)cc1-2` [CBN, cannabinol], at CYP2J2 [3], the “Metabolite(s)” value is recorded as -1’-OH or -11-OH. At CYP2J2 [4], the high-spin shift stood at 38%. At CYP2J2 [5], the “Type of AEA Metabolism Inhibition” value was “Noncompetitive” and the “apparent Vmax of AEA metabolism, % of the uninhibited enzyme” value is on record as 20–45%. This molecule also showed a Ki at CYP2J2 [5] (Ki, AEA Metabolism Inhibition) of 19.4 ± 2 µM.

As for `CCCCCc1cc(O)c(C/C=C(\C)CCC=C(C)C)c(O)c1` [CBG, cannabigerol], the Vmax at CYP2J2 [1] is on record as 123 ± 14 pmol · min^−1 · nmolCYP2J2^−1. For the same molecule, at CYP2J2 [8], binding was put at a Kd of 11.1 ± 1.2 µM. The “Metabolite(s)” value at CYP2J2 [3] was -1”-OH. For the same molecule, at CYP2J2 [4], the high-spin shift is on record as 48%. Also, the “Type of AEA Metabolism Inhibition” value at CYP2J2 [5] is given as “competitively; also recorded: Competitive”. Further, affinity on CYP2J2 [5] (Ki, AEA Metabolism Inhibition) was put at a Ki of 10.8 ± 1.4 µM.

Consider `CCCCC(O)c1cc(O)c2c(c1)OC(C)(C)C1CC=C(C)CC21` (stereo not drawn) [Δ8-THC-1’-OH], for which the “induction of behavioral changes associated with cannabis use” value in the data set with Rhesus monkeys is listed as “least effective”.

B1: CYP2J2 (Homo sapiens) (protein)
chain: T1 sequence (P51589 1-502)
On to B1, for which the Km in “not read [9]” worked out at 30.9 ± 7.3 µM; in the data set “not read [10]” it was 8.27 ± 3.24 µM.

Values taken from publication PMC5964033 (Journal of inorganic biochemistry, 2018).
